In the assay the test system is dorsal forearm skin of healthy female Caucasian subjects. The experiment in a line: In vivo biopsy (forearm patch, histology endpoints). Further details: species or system human. The note with it: 0.05% active (positive control), semi-occlusion patch, 3 weeks. The procedure:
Healthy female Caucasian subjects aged 30-65, with skin type II or III and mild to moderate photo damage, were treated on the dorsal forearm for 3 weeks (3 consecutive rounds of 5×24 hour) under semi-occlusion patches. Test articles including active ingredients, vehicle controls, and retinol were applied in a randomized allocation on 6 sites on each forearm. The application dose was 2 mg/cm^2. After 3 week treatment, a 2 mm punch biopsy was obtained from each treatment site and fixed in 10% buffered formalin. Tissue samples then embedded in paraffin, sectioned (5 μm thickness), and stained for skin markers after re-hydration. […] Retinol at a active concentration of 0.05% was used a positive control. Retinol use at a 0.05% active concentration in the semi-occlusion patch vehicle formulation yielded a visual score of approximately 0.56 out of a 4 point scale in HE staining (measuring hematoxylin and eosin staining, an indication of viable epidermal thickness and health) with 63.6% of the subjects showing an improvement; a visual score of 0.6 out of a 4 point scale in M-TC staining (Masson's trichrome staining, assessing total mature fiber-forming collagen in the dermis—mainly Collagen I, […] and Collagen V) with 51.6% of the subjects showing an improvement; a visual score of 0.52 out of a 4 point scale for pro-Col (measuring new synthesis of Collagen I by skin fibroblasts in the dermis) with 51.6% of the subjects showing an improvement; and a visual score of 0.57 out of a 4 point scale for HA (measuring level of hyaluronic acid in both dermis and epidermis) with 50% of the subjects showing an improvement.

This note sets out measurements from patent US20150366788A1, “[…] EXTRACTS AND METHODS OF USE” (AVON PRODUCTS, INC, priority 2013, published 2015).

In the case of `CC1=C(/C=C/C(C)=C/C=C/C(C)=C/CO)C(C)(C)CCC1` [Retinol], the “subjects showing an improvement, HA” value turned out to be 50%; the “subjects showing an improvement, HE staining” value amounted to 63.6%; the “subjects showing an improvement, M-TC staining” value amounted to 51.6%; the “subjects showing an improvement, pro-Col” value amounted to 51.6%. Where the note is “out of a 4 point scale”, the “visual score HA (hyaluronic acid in dermis and epidermis)” value came to 0.57; the “visual score HE staining (viable epidermal thickness and health)” value is given as “approximately 0.56”; the “visual score M-TC staining (total mature fiber-forming collagen in dermis)” value was 0.6; the “visual score pro-Col (new synthesis of Collagen I)” value worked out at 0.52.
